Measured values as given in US9695165B2, “Inhibitors of the fibroblast growth factor receptor” (BLUEPRINT MEDICINES CORPORATION, priority 2014, dated 2017).

Columns and labels:
wild type FGFR-4 = wild type FGFR-4 (Homo sapiens (Human), UniProt P22455); assay: FGFR-4 wild type assay at Km (Caliper electrophoretic mobility shift); assay type: biochemical; details: wild type FGFR-4, 400 uM ATP, 25 C, 90 minutes; read-out: FGFR4 IC50
Procedure: In order to assess the activity of chemical compounds against the relevant kinase of interest, the Caliper LifeSciences electrophoretic mobility shift technology platform is utilized. Fluorescently labeled substrate peptide is incubated in the presence of dosed levels of compounds, a set concentration of kinase and of ATP, so that a reflective proportion of the peptide is phosphorylated. At the end of the reaction, the mix of phosphorylated (product) and non-phosphorylated (substrate) peptides are passed through the microfluidic system of the Caliper LabChip® EZ Reader II, under an applied potential difference. The presence of the phosphate group on the product peptide provides a difference in mass and charge between the product peptide and the substrate peptide, resulting in a separation of the substrate and product pools in the sample. As the pools pass the LEDS within the instrument, these pools are detected and resolved as separate peaks. The ratio between these peaks therefore reflects the activity of the chemical matter at that concentration in that well, under those conditions.
The reaction was stopped by the addition of 70 ul of Stop buffer (100 mM HEPES pH 7.5, 0.015% Brij 35, 35 mM EDTA and 0.2% of Coating Reagent 3 (Caliper Lifesciences)). The plate was then read on a Caliper LabChip® EZ Reader II (protocol settings: −1.9 psi, upstream voltage −700, downstream Voltage −3000, post sample sip 35S).

[1] = system: pMAPK (Thr202/Tyr204) in MDA-MB453 cells; assay: Detection of pMAPK (Thr202/Tyr204) using Alpha Elisa (pERK alphaLISA) in MDA-MB453 cells; assay type: cell-based; details: Homo sapiens, MDA-MB-453, 1 hr incubation with compound
Procedure: MDA-MB453 cells were plated in 96-well cell culture plates at a density of 1×10^5 cells. Cells were allowed to attach, and growth media was replaced with serum free media. Compounds were added at the indicated concentrations. Following 1 hr incubation in the presence of compound, cells were collected. Cell lysates were prepared and processed according to manufacturer instruction (AlphaScreen® SureFire™ Phospho-ERK 1/2 Kit (Perkin Elmer).

Sequence of wild type FGFR-4 (P22455 22-802): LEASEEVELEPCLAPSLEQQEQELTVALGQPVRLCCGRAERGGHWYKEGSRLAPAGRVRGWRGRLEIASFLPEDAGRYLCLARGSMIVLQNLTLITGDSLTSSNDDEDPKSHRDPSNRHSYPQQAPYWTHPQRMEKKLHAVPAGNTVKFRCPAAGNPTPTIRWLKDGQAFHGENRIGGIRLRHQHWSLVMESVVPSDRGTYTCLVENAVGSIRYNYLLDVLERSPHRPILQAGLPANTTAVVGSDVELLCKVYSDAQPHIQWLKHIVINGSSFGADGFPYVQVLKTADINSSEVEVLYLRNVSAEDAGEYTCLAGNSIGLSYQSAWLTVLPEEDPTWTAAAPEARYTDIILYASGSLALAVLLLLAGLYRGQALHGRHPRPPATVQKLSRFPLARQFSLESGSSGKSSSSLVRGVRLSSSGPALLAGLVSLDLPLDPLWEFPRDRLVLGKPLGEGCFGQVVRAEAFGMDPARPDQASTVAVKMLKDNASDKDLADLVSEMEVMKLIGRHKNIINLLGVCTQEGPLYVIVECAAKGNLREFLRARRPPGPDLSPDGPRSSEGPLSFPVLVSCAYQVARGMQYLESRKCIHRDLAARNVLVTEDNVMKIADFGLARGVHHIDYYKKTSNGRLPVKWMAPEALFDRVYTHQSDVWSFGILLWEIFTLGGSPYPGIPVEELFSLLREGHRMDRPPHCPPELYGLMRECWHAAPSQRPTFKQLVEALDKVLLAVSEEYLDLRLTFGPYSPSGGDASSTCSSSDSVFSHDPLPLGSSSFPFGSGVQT

| SMILES | IC50 (wild type FGFR-4) | IC50 [1] |
| --- | --- | --- |
| C=CC(=O)Nc1ccccc1-c1ncc2cc(-c3c(Cl)c(OC)cc(OC)c3Cl)ccc2n1 [Compound 2] | 100 to 1000 nM | – |
| C=CC(=O)N(C)c1ccccc1-c1cc2c(cn1)cc(-c1c(Cl)c(OC)cc(OC)c1Cl)c(=O)n2CC [Compound 26] | 10 to 100 nM | – |
| C=CC(=O)Nc1ccc(F)c(-c2cc3c(cn2)cc(-c2cc(OC)cc(OC)c2)c(=O)n3C(C)C)c1 [Compound 4] | 10 to 100 nM | 100 to 1000 nM |
| C=CC(=O)Nc1ccc(C)c(-c2cc3c(cn2)cc(-c2c(Cl)c(OC)cc(OC)c2Cl)c(=O)n3CC)c1 [Compound 27] | 10 to 100 nM | 10 to 100 nM |
| C=CC(=O)Nc1ccc(F)c(-c2cc3c(cn2)cc(-c2c(F)c(OC)cc(OC)c2F)c(=O)n3C(C)C)c1 [Compound 17] | < 10 nM | < 10 nM |
| C=CC(=O)Nc1ccccc1-c1cc2c(cn1)cc(-c1c(Cl)c(OC)cc(OC)c1Cl)c(=O)n2CC [Compound 19] | < 10 nM | 10 to 100 nM |
| C=CC(=O)Nc1ccccc1-c1ncc2cc(-c3c(Cl)c(OC)cc(OC)c3Cl)c(OC)cc2n1 [Compound 15] | 100 to 1000 nM | – |
| C=CC(=O)Nc1ccccc1-c1ncc2cc(-c3c(Cl)c(OC)cc(OC)c3Cl)c(=O)n(C3CCCC3)c2n1 [Compound 46] | 10 to 100 nM | – |
| C=CC(=O)Nc1ccc(C)c(-c2cc3c(cn2)CN(c2c(Cl)c(OC)cc(OC)c2Cl)C(=O)N3CC)c1 [Compound 29] | 10 to 100 nM | – |
| C=CC(=O)Nc1ccc(F)c(-c2ncc3cc(-c4c(Cl)c(OC)cc(OC)c4Cl)c(=O)n(CC)c3n2)c1 [Compound 30] | – | < 10 nM |
| C=CC(=O)Nc1cc(OC(C)C)cc(-c2cc3c(cn2)cc(-c2c(Cl)c(OC)cc(OC)c2Cl)c(=O)n3C)c1 [Compound 49] | 10 to 100 nM | – |
| C=CC(=O)Nc1ccc(F)c(-c2cc3c(cn2)cc(-c2c(F)c(OC)cc(OC)c2Cl)c(=O)n3CC)c1 [Compound 21] | < 10 nM | < 10 nM |
| C=CC(=O)Nc1ccc(F)c(-c2cc3c(cn2)cc(-c2c(Cl)c(OC)cc(OC)c2Cl)c(=O)n3C)c1 [Compound 23] | < 10 nM | 10 to 100 nM |
| C=CC(=O)N(C)c1cccc(-c2ncc3cc(-c4c(Cl)c(OC)cc(OC)c4Cl)ccc3n2)c1 [Compound 6] | > 1000 nM | – |
| C=CC(=O)Nc1ccc(F)c(-c2cc3c(cn2)cc(-c2c(Cl)c(OC)cc(OC)c2Cl)c(=O)n3C(C)C)c1 [Compound 40] | < 10 nM | < 10 nM |
| C=CC(=O)N1CCOc2ccc(-c3cc4c(cn3)CN(c3c(Cl)c(OC)cc(OC)c3Cl)C(=O)N4CC)cc21 [Compound 50] | < 10 nM | 10 to 100 nM |
| C=CC(=O)Nc1ccccc1-c1cc2c(cn1)cc(-c1cc(C(=O)NOC)ccc1Cl)c(=O)n2CC [Compound 9] | < 10 nM | 10 to 100 nM |
| C=CC(=O)Nc1ccc(F)c(-c2cc3c(cn2)cc(-c2cc(OC)cc(OC)c2Cl)c(=O)n3CC)c1 [Compound 12] | < 10 nM | < 10 nM |

| SMILES | IC50 (wild type FGFR-4) | IC50 [1] |
| --- | --- | --- |
| C=CC(=O)Nc1ccc(F)c(-c2cc3c(cn2)cc(-c2cc(OC)cc(OC)c2F)c(=O)n3C(C)C)c1 [Compound 10] | < 10 nM | 10 to 100 nM |
| C=CC(=O)N1CCc2ccc(-c3ncc4cc(-c5c(Cl)c(OC)cc(OC)c5Cl)c(=O)n(CC)c4n3)cc21 [Compound 35] | – | 10 to 100 nM |
| C=CC(=O)Nc1cccc(-c2cc3c(cn2)cc(-c2c(Cl)c(OC)cc(OC)c2Cl)c(=O)n3CC)c1 [Compound 20] | < 10 nM | < 10 nM |
| C=CC(=O)N1CCCc2ccc(-c3cc4c(cn3)cc(-c3c(Cl)c(OC)cc(OC)c3Cl)c(=O)n4CC)cc21 [Compound 45] | < 10 nM | – |
| C=CC(=O)Nc1cccc(-c2ncc3cc(-c4c(Cl)c(OC)cc(OC)c4Cl)ccc3n2)c1 [Compound 3] | > 1000 nM | – |
| C=CC(=O)N1c2cc(-c3cc4c(cn3)cc(-c3c(Cl)c(OC)cc(OC)c3Cl)c(=O)n4CC)c(F)cc2OCC1C (stereo not drawn) [Compound 53] | < 10 nM | 10 to 100 nM |
| C=CC(=O)N1CCOc2ccc(-c3cc4c(cn3)nc(-c3c(Cl)c(OC)cc(OC)c3Cl)c(=O)n4C3CCCC3)cc21 [Compound 56] | < 10 nM | – |
| C=CC(=O)N1CCOc2ccc(-c3cc4c(cn3)cc(-c3c(Cl)c(OC)cc(OC)c3Cl)c(=O)n4C3CCCC3)cc21 [Compound 54] | 10 to 100 nM | – |
| C=CC(=O)Nc1cccc(-c2cc3c(cn2)CN(c2c(Cl)c(OC)cc(OC)c2Cl)C(=O)N3CC)c1 [Compound 22] | 10 to 100 nM | 10 to 100 nM |
| C=CC(=O)Nc1cc(F)c(F)c(-c2cc3c(cn2)cc(-c2c(Cl)c(OC)cc(OC)c2Cl)c(=O)n3CC)c1 [Compound 41] | < 10 nM | – |
| C=CC(=O)Nc1ccccc1-c1cc2ccc(-c3c(Cl)c(OC)cc(OC)c3Cl)cc2cn1 [Compound 1] | 100 to 1000 nM | – |
| C=CC(=O)Nc1cccc(-c2ncc3cc(-c4c(Cl)c(OC)cc(OC)c4Cl)cc(OC)c3n2)c1 [Compound 13] | 100 to 1000 nM | – |
| C=CC(=O)Nc1ccc(F)c(-c2cc3c(cn2)CN(c2c(Cl)c(OC)cc(OC)c2Cl)C(=O)N3CC)c1 [Compound 32] | < 10 nM | 10 to 100 nM |
| C=CC(=O)Nc1ccc(F)c(-c2ncc3cc(-c4c(Cl)c(OC)cc(OC)c4Cl)c(=O)n(CC)c3n2)c1 [Compound 31] | 10 to 100 nM | – |
| CCn1c(=O)c(-c2c(Cl)c(OC)cc(OC)c2Cl)cc2cnc(-c3cccc(NC(=O)/C=C/CN(C)C)c3)cc21 [Compound 51] | 10 to 100 nM | – |
| C=CC(=O)N1CC(C)(C)Oc2ccc(-c3cc4c(cn3)cc(-c3c(Cl)c(OC)cc(OC)c3Cl)c(=O)n4CC)cc21 [Compound 52] | – | 10 to 100 nM |
| C=CC(=O)Nc1ccccc1-c1cc2c(cn1)cc(-c1c(Cl)c(OC)cc(OC)c1Cl)c(=O)n2C(C)C [Compound 25] | < 10 nM | 10 to 100 nM |

Next, values leading:

| IC50 (wild type FGFR-4) | IC50 [1] | SMILES |
| --- | --- | --- |
| < 10 nM | 10 to 100 nM | C=CC(=O)N1CCOc2ccc(-c3cc4c(cn3)cc(-c3c(Cl)c(OC)cc(OC)c3Cl)c(=O)n4CC)cc21 [Compound 47] |
| 10 to 100 nM | – | C=CC(=O)N1c2cc(-c3ncc4cc(-c5c(Cl)c(OC)cc(OC)c5Cl)ccc4n3)c(F)cc2OCC1C (stereo not drawn) [Compound 38] |
| 10 to 100 nM | – | C=CC(=O)N1CC(C)(C)Oc2cc(F)c(-c3ncc4cc(-c5c(Cl)c(OC)cc(OC)c5Cl)ccc4n3)cc21 [Compound 48] |
| 10 to 100 nM | – | C=CC(=O)N1CCOc2ccc(-c3ncc4cc(-c5c(Cl)c(OC)cc(OC)c5Cl)c(=O)n(C5CCCC5)c4n3)cc21 [Compound 55] |
| 10 to 100 nM | 10 to 100 nM | C=CC(=O)N1CC(C)(C)Oc2ccc(-c3ncc4cc(-c5c(Cl)c(OC)cc(OC)c5Cl)ccc4n3)cc21 [Compound 34] |
| > 1000 nM | – | C=CC(=O)Nc1ccc(C)c(-c2ncc3cc(-c4c(Cl)c(OC)cc(OC)c4Cl)ccc3n2)c1 [Compound 5] |
| – | 100 to 1000 nM | C=CC(=O)Nc1cccc(F)c1-c1ncc2cc(-c3c(Cl)c(OC)cc(OC)c3Cl)ccc2n1 [Compound 7] |
| 10 to 100 nM | – | C=CC(=O)N1CCc2ccc(-c3ncc4cc(-c5c(Cl)c(OC)cc(OC)c5Cl)ccc4n3)cc21 [Compound 11] |
| < 10 nM | 10 to 100 nM | C=CC(=O)N1CCOc2cc(F)c(-c3ncc4cc(-c5c(Cl)c(OC)cc(OC)c5Cl)ccc4n3)cc21 [Compound 28] |
| 10 to 100 nM | – | C=CC(=O)N1CCOc2ccc(-c3ncc4cc(-c5c(Cl)c(OC)cc(OC)c5Cl)ccc4n3)cc21 [Compound 16] |
| 100 to 1000 nM | – | C=CC(=O)N1CCC(C)(C)c2ccc(-c3ncc4cc(-c5c(Cl)c(OC)cc(OC)c5Cl)ccc4n3)cc21 [Compound 33] |
| 10 to 100 nM | – | C=CC(=O)N1CCOc2ccc(-c3ncc4cc(-c5c(Cl)c(OC)cc(OC)c5Cl)c(OC)cc4n3)cc21 [Compound 36] |
| 10 to 100 nM | – | C=CC(=O)N1CC(C)(C)Oc2cc(C)c(-c3ncc4cc(-c5c(Cl)c(OC)cc(OC)c5Cl)ccc4n3)cc21 [Compound 44] |
| < 10 nM | – | C=CC(=O)N1CCOc2ccc(-c3cc4c(cn3)cc(-c3c(Cl)c(OC)cc(OC)c3Cl)c(=O)n4C)cc21 [Compound 37] |
| < 10 nM | 10 to 100 nM | C=CC(=O)N1CCc2cc(F)c(-c3ncc4cc(-c5c(Cl)c(OC)cc(OC)c5Cl)ccc4n3)cc21 [Compound 18] |
| 10 to 100 nM | 10 to 100 nM | C=CC(=O)N1CCOc2cc(C)c(-c3ncc4cc(-c5c(Cl)c(OC)cc(OC)c5Cl)ccc4n3)cc21 [Compound 24] |
